Values joined by “and” are separate entries in the source; they are usually repeats but may differ in a detail not shown here. Equal entries are not always repeated. Where two headings read alike, the source gives them in different places.
Columns and labels:
[1] = tested on: 1483 human head and neck squamous cell carcinoma (HNSCC) xenograft; assay: HN1483 tumor model: paw tumor volume of treated mice; format: in vivo, nude mice; conditions: for Tumor vol. Average: group average; for Paw volume, paw / Tumor vol.: individual mice
[2] = SU-5416/50 mgkd, Day 17 Mar. 16, 2001
[3] = SU-5416/50 mgkd, Day 21 Mar. 20, 2001
[4] = SU-5416/50 mgkd, Day 24 Mar. 23, 2001
[5] = SU-5416/50 mgkd, Day 31 Apr. 2, 2001
[6] = SU-5416/50 mgkd, Day 31 Mar. 30, 2001

Cc1cc(C)c(C=C2C(=O)Nc3ccccc32)[nH]1 [SU5416, 3-[(2,4-Dimethylpyrrol-5-yl)methylene]-2-indolinone]
Tumor vol. Average ([1]; SU5416 25 mg/kg/day s.c. group, Day 7 Mar. 3, 2001 (before start of dosing)): 0.14
Paw volume, paw ([1]; SU5416 25 mg/kg/day s.c. group, Day 7 Mar. 3, 2001 (before start of dosing), 25 mg/kg/day): 0.26 (3×) and 0.28 and 0.27 (2×) and 0.24 and 0.23
Tumor vol. ([1]; SU5416 25 mg/kg/day s.c. group, Day 7 Mar. 3, 2001 (before start of dosing), paw minus 0.10, 25 mg/kg/day): 0.16 (2×) and 0.17 (3×) and 0.18 and 0.14 and 0.13
Tumor vol. Average ([1]; SU5416 25 mg/kg/day s.c., Day 14 Mar. 13, 2001): 0.18
Paw volume, paw ([1]; SU5416 25 mg/kg/day s.c., Day 14 Mar. 13, 2001, 25 mg/kg/day): 0.29 (3×) and 0.28 (2×) and 0.27 and 0.26 and 0.24
Tumor vol. ([1]; SU5416 25 mg/kg/day s.c., Day 14 Mar. 13, 2001, paw minus BKG. 0.10, 25 mg/kg/day): 0.19 (3×) and 0.18 and 0.17 and 0.16 (2×) and 0.14
Tumor vol. Average ([1]; SU5416 25 mg/kg/day s.c., Day 17 Mar. 16, 2001): 0.21
Paw volume, paw ([1]; SU5416 25 mg/kg/day s.c., Day 17 Mar. 16, 2001, 25 mg/kg/day): 0.37 (2×) and 0.33 and 0.29 and 0.28 (2×) and 0.36 and 0.23
Tumor vol. ([1]; SU5416 25 mg/kg/day s.c., Day 17 Mar. 16, 2001, paw minus BKG. 0.10, 25 mg/kg/day): 0.27 (2×) and 0.23 and 0.19 and 0.18 (2×) and 0.26 and 0.13
Tumor vol. Average ([1]; SU5416 25 mg/kg/day s.c., Day 21 Mar. 20, 2001): 0.34
Paw volume, paw ([1]; SU5416 25 mg/kg/day s.c., Day 21 Mar. 20, 2001, 25 mg/kg/day): 0.55 and 0.49 and 0.37 and 0.34 and 0.4 and 0.58 and 0.56 and 0.24
Tumor vol. ([1]; SU5416 25 mg/kg/day s.c., Day 21 Mar. 20, 2001, paw minus BKG. 0.10, 25 mg/kg/day): 0.45 and 0.39 and 0.27 and 0.24 and 0.30 and 0.48 and 0.46 and 0.14
Tumor vol. Average ([1]; SU5416 25 mg/kg/day s.c., Day 24 Mar. 23, 2001): 0.39
Paw volume, paw ([1]; SU5416 25 mg/kg/day s.c., Day 24 Mar. 23, 2001, 25 mg/kg/day): 0.59 and 0.8 and 0.37 and 0.4 and 0.49 and 0.65 and 0.61 and 0.22
Tumor vol. ([1]; SU5416 25 mg/kg/day s.c., Day 24 Mar. 23, 2001, paw minus BKG. 0.10, 25 mg/kg/day): 0.49 and 0.50 and 0.27 and 0.30 (2×) and 0.55 and 0.51 and 0.12
Tumor vol. Average ([1]; SU5416 25 mg/kg/day s.c., Day 31 Apr. 2, 2001): 0.87
Paw volume, paw ([1]; SU5416 25 mg/kg/day s.c., Day 31 Apr. 2, 2001, 25 mg/kg/day): 0.82 and 0.79 and 0.57 and 0.6 and 0.66 and 0.98 and 0.75 and 0.21
Tumor vol. ([1]; SU5416 25 mg/kg/day s.c., Day 31 Apr. 2, 2001, paw minus BKG. 0.10, 25 mg/kg/day): 0.72 and 0.69 and 0.47 and 0.50 and 0.56 and 0.68 and 0.65 and 0.11
Tumor vol. Average ([1]; SU5416 25 mg/kg/day s.c., Day 31 Mar. 30, 2001): 0.56
Paw volume, paw ([1]; SU5416 25 mg/kg/day s.c., Day 31 Mar. 30, 2001, 25 mg/kg/day): 0.84 and 0.5 and 0.71 and 0.23 and 0.73 and 0.81 and 0.54 and 0.56
Tumor vol. ([1]; SU5416 25 mg/kg/day s.c., Day 31 Mar. 30, 2001, paw minus BKG. 0.10, 25 mg/kg/day): 0.74 and 0.70 and 0.61 and 0.13 and 0.63 and 0.71 and 0.44 and 0.46
Tumor vol. Average ([1]; SU5416 25 mg/kg/day s.c., Start dosing Day 10 Mar. 9, 2001): 0.16
Paw volume, paw ([1]; SU5416 25 mg/kg/day s.c., Start dosing Day 10 Mar. 9, 2001, 25 mg/kg/day): 0.3 and 0.25 and 0.23 and 0.26 and 0.27 and 0.29 and 0.24 (2×)
Tumor vol. ([1]; SU5416 25 mg/kg/day s.c., Start dosing Day 10 Mar. 9, 2001, paw minus BKG. 0.10, 25 mg/kg/day): 0.20 and 0.15 and 0.13 and 0.10 and 0.17 and 0.19 and 0.14 (2×)
Paw volume, paw ([1]; SU-5416/50 mgkd, Day 14 Mar. 13, 2001): 0.29 and 0.22 and 0.32 and 0.27 (2×) and 0.24 and 0.26 and 0.21
Tumor vol. Average [1, 2]: 0.19
Paw volume, paw [1, 2]: 0.24 and 0.27 and 0.2 and 0.3 and 0.32 and 0.22 and 0.39 and 0.34
Tumor vol. ([1]; SU-5416/50 mgkd, Day 17 Mar. 16, 2001, paw minus BKG. 0.10): 0.14 and 0.17 and 0.10 and 0.20 and 0.22 and 0.12 and 0.29 and 0.24
Tumor vol. Average [1, 3]: 0.27
Paw volume, paw [1, 3]: 0.27 and 0.36 and 0.19 and 0.31 and 0.44 and 0.22 and 0.63 and 0.48
Tumor vol. ([1]; SU-5416/50 mgkd, Day 21 Mar. 20, 2001, paw minus BKG. 0.10): 0.17 and 0.28 and 0.09 and 0.21 and 0.34 and 0.12 and 0.53 and 0.38
Tumor vol. Average [1, 4]: 0.30
Paw volume, paw [1, 4]: 0.25 and 0.46 and 0.19 and 0.28
Tumor vol. ([1]; SU-5416/50 mgkd, Day 24 Mar. 23, 2001, paw minus BKG. 0.10): 0.15 and 0.36 and 0.09 and 0.18 and 0.42 and 0.08 and 0.64
Tumor vol. Average [1, 5]: 0.34
Paw volume, paw [1, 5]: 0.18 and 0.53 and 0.15 and 0.25
Tumor vol. ([1]; SU-5416/50 mgkd, Day 31 Apr. 2, 2001, paw minus BKG. 0.10): 0.08 (2×) and 0.43 and 0.05 and 0.15 and 0.59
Tumor vol. Average [1, 6]: 0.36
Paw volume, paw [1, 6]: 0.24 and 0.6 and 0.18 and 0.21
Tumor vol. ([1]; SU-5416/50 mgkd, Day 31 Mar. 30, 2001, paw minus BKG. 0.10): 0.14 (2×) and 0.50 and 0.08 and 0.11 and 0.73 and 0.62
body wt, individual mouse (group 2, SU5416 25 mg/kg/day s.c., Day 0 (day of injection), 25 mg/kg/day): 31.93
body wt, individual mouse (group 2, SU5416 25 mg/kg/day s.c., Day 7, 25 mg/kg/day): 32.41 and 25.96
body wt, individual mouse (group 2, SU5416 25 mg/kg/day s.c., Day 10, 25 mg/kg/day): 32.36 and 25.96 and 31
body wt, individual mouse (group 2, SU5416 25 mg/kg/day s.c., Day 14, 25 mg/kg/day): 28.02 and 32.11 and 23.91 and 21.18
body wt, individual mouse (group 2, SU5416 25 mg/kg/day s.c., Day 17, 25 mg/kg/day): 28.98 and 18.97
body wt, individual mouse (group 2, SU5416 25 mg/kg/day s.c., Day 21, 25 mg/kg/day): 22.29 and 18.32
body wt, individual mouse (group 2, SU5416 25 mg/kg/day s.c., Day 24, 25 mg/kg/day): 24.83 and 21.3 and 22.29 and 22.93 and 18.15 and 29.02
body wt, individual mouse (group 2, SU5416 25 mg/kg/day s.c., Day 31, 25 mg/kg/day): 23.86 and 17.88 and 20.51
body wt, individual mouse (group 2, SU5416 25 mg/kg/day s.c., Day 35, 25 mg/kg/day): 21.74 and 22.95 and 18.42
body wt, individual mouse (group 5, SU-5416 50 mpkd, Day 0 (day of injection)): 26.04
body wt, individual mouse (group 5, SU-5416 50 mpkd, Day 7): 29.04
body wt, individual mouse (group 5, SU-5416 50 mpkd, Day 21): 25.96 and 24.96
body wt, individual mouse (group 5, SU-5416 50 mpkd, Day 24): 22.85 and 24.01 and 24.79
body wt, individual mouse (group 5, SU-5416 50 mpkd, Day 31): 26.03

From patent publication US20060252766A1, “Methods using a combination of 3-heteroaryl-2-indolinone and a cyclooxygenase-2 inhibitor for the treatment of neoplasia” (PFIZER INC, priority 2002, published 2006)
